Publication PMC11433014, “In Vitro In Silico Screening Strategy and Mechanism of Novel Tyrosinase Inhibitory Peptides from Nacre of Hyriopsis cumingii” (Marine Drugs, 2024)
Entries after “also recorded” stand apart in the source; their conditions may differ. Where no end group is shown, it is not given here.

Assays:
[1] = test system: glutathione peroxidase (GSH-Px); assay: GSH-Px activity in B16F10 cells; format: cell-based, mouse; conditions: 50 μg/mL (highest treatment concentration; Kojic acid 50 μg/mL)
Procedure: (§1) Cell culture and treatment methods were the same as described in Section 3.10. The activities of catalase (CAT), glutathione peroxidase (GSH-Px), and superoxide dismutase (SOD) were determined using the assay kit from Nanjing Jianjian Bioengineering Research Institute (Nanjing, China).

[2] = test system: catalase (CAT); assay: CAT activity in B16F10 cells; format: cell-based, mouse; conditions: 50 μg/mL (highest treatment concentration; Kojic acid 50 μg/mL)
Procedure: as §1

[3] = test system: superoxide dismutase (SOD); assay: SOD activity in B16F10 cells; format: cell-based, mouse; conditions: 50 μg/mL (highest treatment concentration; Kojic acid 50 μg/mL)
Procedure: as §1

[4] = test system: tyrosinase activity in B16F10 cells; assay: Intracellular tyrosinase activity in B16F10 cells; format: cell-based, mouse; conditions: 50 μg/mL (highest treatment concentration; Kojic acid 50 μg/mL), 24 h, L-DOPA, 475 nm, vs control
Procedure: Cells in the logarithmic growth phase were cultured at a density of 4 × 10^5 cells per well in 6-well plates. Following a 24 h incubation period, the culture supernatant was discarded. Experimental groups were established, including a control group, a positive control group treated with Kojic acid at a concentration of 50 µg/mL [40], and peptide-treated groups at concentrations of 10, 25, and 50 µg/mL. After an additional 24 h of incubation, the cells were lysed, and the resulting cell lysates were subjected to centrifugation at 12,000 rpm for 10 min. The reaction mixture was prepared by combining 50 µL of the cell lysate supernatant, 50 µL of 1 mg/mL L-DOPA, and 50 µL of PBS buffer. This mixture was incubated at 37 °C for 1 h. Subsequently, the level of […] formation was quantified spectrophotometrically at a wavelength of 475 nm. The activity of tyrosinase was reported as a percentage relative to the blank control.

[5] = test system: melanin production in B16F10 cells; assay: Melanin content of B16F10 cells; format: cell-based, mouse; conditions: 50 μg/mL (highest treatment concentration; Kojic acid 50 μg/mL), 48 h, absorbance 405 nm, vs control
Procedure: Cells in the logarithmic growth phase were cultured at a density of 4 × 10^5 cells per well in 6-well plates. Following a 24 h incubation period, the culture supernatant was discarded. Experimental groups were established, including a control group, a positive control group treated with Kojic acid at a concentration of 50 µg/mL [40], and peptide-treated groups at concentrations of 10, 25, and 50 µg/mL. After an additional 24 h of incubation, the cells were lysed, and the resulting cell lysates were subjected to centrifugation at 12,000 rpm for 10 min. The reaction mixture was prepared by combining 50 µL of the cell lysate supernatant, 50 µL of 1 mg/mL L-DOPA, and 50 µL of PBS buffer. This mixture was incubated at 37 °C for 1 h. Subsequently, the level of dopamine formation was quantified spectrophotometrically at a wavelength of 475 nm.
The cell culture stage for melanin content determination was as follows: The cells were washed twice with PBS buffer after 48 h of peptide treatment. Trypsin digestion was performed, and the cells were collected. […] Then, 200 µL of the supernatant was transferred to a 96-well plate, and the absorbance was measured at 405 nm. The melanin content was then expressed as a percentage of the control group.

[6] = DPPH free radical scavenging capacity (kit); conditions: synthetic peptides, 1 mg/mL; comparison among the three peptides, in words
Procedure: (§2) Use a concentration of 1 mg/mL of the enzymatic hydrolysate to assess the free radical scavenging rate. DPPH and ABTS free radical scavenging capacity assays were conducted using kits from Grace Biotechnology Co., Ltd. (Suzhou, Jiangsu, China). The subsequent determination of the inhibitory rate of peptide tyrosinase synthesis and the antioxidant measurement methods refer to this step.

[7] = ABTS free radical scavenging capacity (kit); conditions: synthetic peptides, 1 mg/mL; ranking among the three peptides (p < 0.05)
Procedure: as §2

[8] = target: T1, Tyrosinase (Agaricus bisporus, UniProt C7FF04); assay: Tyrosinase inhibitory activity assay (mushroom tyrosinase, L-tyrosine substrate); format: biochemical; conditions: 0.5 mg/mL L-tyrosine, PBS, 20 μL tyrosinase (500 U/mL), preincubation 37 °C 10 min, reaction 10 min at 37 °C; mean ± SD of at least three experiments
T1 construct: purchased Shanghai Yuanye Biotechnology Co., Ltd. (Shanghai, China)
Procedure: Tyrosinase (from Mushroom, 500 U/mg) and PBS buffer were purchased from Shanghai Yuanye Biotechnology Co., Ltd. (Shanghai, China). L-tyrosine was obtained from Shanghai Macklin Biochemical Technology Co., Ltd. (Shanghai, China).
A solution of L-tyrosine at a concentration of 0.5 mg/mL, along with the sample solution and PBS buffer, was sequentially introduced into a 96-well plate. The mixture was thoroughly homogenized and subsequently incubated at 37 °C for 10 min. Following this incubation, 20 μL of tyrosinase solution (500 U/mL) was added to each well, and the plate was promptly placed in an enzyme marker for a reaction period of (10 min ± 5 s) at 37 °C.

[9] = test system: B16F10 cells; assay: Cytotoxicity to B16F10 cells (CCK-8); format: cell-based, mouse; conditions: 10–800 μg/mL
Procedure: B16F10 cells were purchased from Hunan FengHui Biotechnology Co., Ltd. (Changsha, Hunan, China). Cell cultures of B16F10, specifically from generations 10 to 25, were maintained in a medium consisting of DMEM supplemented with 10% fetal bovine serum and 1% antibiotic–antifungal solution, under conditions of 5% CO2 at 37 °C.
Cell viability was evaluated utilizing the Cell Counting Kit-8 (CCK-8) assay. During the logarithmic growth phase, 100 µL of cell suspension, containing 3000 cells per well, was transferred into 96-well plates. Following a 24 h incubation period at 37 °C, the supernatant was discarded. Wells containing 100 µL of medium were designated as blank controls. […]

T1 sequence (C7FF04 1-392): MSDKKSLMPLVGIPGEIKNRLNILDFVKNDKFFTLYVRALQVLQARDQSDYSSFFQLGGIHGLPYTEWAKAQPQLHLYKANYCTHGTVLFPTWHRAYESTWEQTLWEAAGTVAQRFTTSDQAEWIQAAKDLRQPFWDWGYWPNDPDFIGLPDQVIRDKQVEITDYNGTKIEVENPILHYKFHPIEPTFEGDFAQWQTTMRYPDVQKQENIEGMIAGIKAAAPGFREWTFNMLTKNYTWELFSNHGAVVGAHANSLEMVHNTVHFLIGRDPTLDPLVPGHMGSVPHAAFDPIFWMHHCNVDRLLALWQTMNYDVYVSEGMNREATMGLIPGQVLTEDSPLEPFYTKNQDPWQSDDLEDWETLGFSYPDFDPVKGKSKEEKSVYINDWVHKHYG

| Molecule | increase of GSH-Px activity [1] [%] | increase of CAT activity [2] [%] | increase of SOD activity [3] [%] | decrease of intracellular tyrosinase activity [4] [%] | decrease of melanin content [5] [%] | DPPH radical scavenging effect [6] | ABTS radical scavenging ability (ranking) [7] | IC50 [8] [µM] | viability of B16F10 cells [9] [%] | cytotoxicity / viability vs control group ([9]; in words) |
| --- | --- | --- | --- | --- | --- | --- | --- | --- | --- | --- |
| O=c1cc(CO)occ1O [Kojic acid] | 25.56 | 32.04 | 68.81 | 16.64 | 17.39 | – | – | – | – | – |
| GYHFHSYP [GYHFHSYP, Gly-Tyr-His-Phe-His-Ser-Tyr-Pro] | – | – | – | – | – | remained consistent at a concentration of 1 mg/mL (p > 0.05) | GYHFHSYP > YPNPY > YVPGHG (p < 0.05) | > 5000 | – | – |
| YPNPY [YPNPY, Tyr-Pro-Asn-Pro-Tyr] | – | – | – | – | – | – | – | 545 ± 28 | ~100 | no significant difference in the viability of B16F10 cells; also recorded: did not exhibit any cytotoxic effects |
| YVPGHG [YVPGHG, Tyr-Val-Pro-Gly-His-Gly] | – | – | – | – | – | remained consistent at a concentration of 1 mg/mL (p > 0.05) | GYHFHSYP > YPNPY > YVPGHG (p < 0.05) | > 50000 | – | – |
